In patent US11066405B2, “Bicyclic compounds and their use in the treatment of cancer” (Tempest Therapeutics, Inc., priority 2017, dated 2021) one finds IC50 data, which are given here for seven compounds.

In this test the target is T1, EP4 (Homo sapiens, UniProt P35408).
T1 construct: host or cells: HEK293, stably transfected; also expresses a promiscuous G protein and a clytin variant
T1 sequence (P35408 whole entry): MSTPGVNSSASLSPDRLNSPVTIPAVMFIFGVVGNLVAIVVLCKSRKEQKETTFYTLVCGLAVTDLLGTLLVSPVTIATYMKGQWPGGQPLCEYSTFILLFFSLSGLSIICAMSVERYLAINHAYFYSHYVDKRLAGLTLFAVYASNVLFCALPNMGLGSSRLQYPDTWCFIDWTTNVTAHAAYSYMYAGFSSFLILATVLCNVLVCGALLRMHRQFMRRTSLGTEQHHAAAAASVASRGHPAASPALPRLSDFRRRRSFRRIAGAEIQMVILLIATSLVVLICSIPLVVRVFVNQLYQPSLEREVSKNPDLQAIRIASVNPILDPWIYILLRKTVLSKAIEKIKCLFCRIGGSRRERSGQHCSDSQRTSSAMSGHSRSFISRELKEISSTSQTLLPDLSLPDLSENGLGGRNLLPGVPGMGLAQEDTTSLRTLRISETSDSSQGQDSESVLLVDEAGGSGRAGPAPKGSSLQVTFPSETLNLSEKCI
In words: EP4 Ca2+-flux assay (functional calcium flux assay, stably transfected HEK293 cells). The note with it: HEK293 cells stably transfected with EP4; ligand PGE2 10 nM; luminescence readout. In kind it is cell-based. The procedure:
The compounds in the present disclosure were tested in a functional calcium flux assay using stably transfected HEK293 cells. Cells transfected with EP1, EP2, EP3 and EP4 were purchased from Eurofins Discovery Services (St. Charles, Mo.). Each receptor subtype has an additional promiscuous G protein added in order to couple to the calcium signaling pathway. The parental cell line used also expresses a novel variant of clytin, a calcium-activated photo-protein, to enable sensitive luminescent detection.
Cells were plated at 50,000 cells per well in black, clear bottom 96-well plates. The plated cells were allowed to sit at room temperature for 30 min prior to transferring to a humidified, 37° C., 5% CO2 incubator for 18-24 h. Assay buffer (HBSS with 20 mM HEPES) and loading buffer (assay buffer plus 10 μM Coelenterazine) were prepared on the day of the assay. Assays were performed by aspirating media from the assay plate and washing once with assay buffer, then replacing with loading buffer and allowing the cells to incubate for 1.5 h at room temperature. Compounds were prepared in assay buffer at a 3× final concentration in non-binding plates. Compounds were added to the cell plates and incubated for 30 min at room temperature. The prostanoid receptor ligand PGE2 was prepared at a 4× dilution ratio for a final concentration of 10 nM. Plates were run on a Flexstation™ using a 100 ms integration luminescence protocol for a total of 60 sec with ligand addition at 15 sec. Data were obtained from relative light units as measured by area under the curve.
Regarding `O=C(O)CC12CCC(NC(=O)c3cccc4ccn(Cc5ccc(S(F)(F)(F)(F)F)cc5)c34)(C1)C2` [Example 29, 2-(4-(1-((4-(pentafluorothiol)phenyl)methyl)-1H-indole-7-carboxamido)bicyclohexan-1-yl)acetic Acid], the IC50 – broadly, the point on the concentration scale where inhibition reaches its midpoint – is 1.2 nM.

`O=C(O)C[C@]12C[C@](NC(=O)c3ccc(F)c4ccn(Cc5ccc(C(F)F)cc5)c34)(C1)C2` [Example 32, 2-(3-(1-(4-(difluoromethyl)benzyl)-4-fluoro-1H-indole-7-carboxamido)bicyclopentan-1-yl)acetic Acid]: the IC50 was found to be 0.1 nM.

Take `O=C(O)C[C@]12C[C@](NC(=O)c3cc(F)cc4ccn(Cc5ccc(C(F)(F)F)cc5)c34)(C1)C2` [Example 33, 2-(3-(5-fluoro-1-(4-(trifluoromethyl)benzyl)-1H-indole-7-carboxamido)bicyclopentan-1-yl)acetic Acid]: the IC50 worked out at 0.1 nM.

`O=C(O)C[C@]12C[C@](NC(=O)c3cccc4ccn(Cc5ccc(-c6ccccc6)cc5)c34)(C1)C2` [Example 34, 2-(3-(1-([1,1′-biphenyl]-4-ylmethyl)-1H-indole-7-carboxamido)bicyclo[1.1.1]pentan-1-yl)acetic Acid]: the IC50 came to 0.22 nM.

`O=C(O)C[C@]12C[C@](NC(=O)c3ccc(F)c4ccn(Cc5ccc(-c6ccccc6)cc5)c34)(C1)C2` [Example 35, 2-(3-(1-([1,1′-biphenyl]-4-ylmethyl)-4-fluoro-1H-indole-7-carboxamido)bicyclo[1.1.11]pentan-1-yl)acetic Acid]: the IC50 came out at 0.28 nM.

With `O=C(O)C[C@]12C[C@](NC(=O)c3cccc4cnn(Cc5ccc(-c6ccccc6)cc5)c34)(C1)C2` [Example 36, 2-(3-(1-([1,1′-biphenyl]-4-ylmethyl)-1H-indazole-7-carboxamido)bicyclo[1.1.1]pentan-1-yl)acetic Acid], the half-maximal inhibitory concentration (IC50) was found to be 0.32 nM.

In the case of `O=C(O)C[C@]12C[C@](NC(=O)c3cccc4cnn(Cc5ccc(OC(F)(F)F)cc5)c34)(C1)C2` [Example 37, 2-(3-(1-(4-(trifluoromethoxy)benzyl)-1H-indazole-7-carboxamido)bicyclo[1.1.1]pentan-1-yl)acetic Acid], the IC50 turned out to be 75 nM.
